Measured values as given in ChEMBL document CHEMBL4396916, “Novel potent substituted 4-amino-2-thiopyrimidines as dual VEGFR-2 and BRAF kinase inhibitors” (Eur J Med Chem, 2019).

Tests used:
[1] = molecular target: Vascular endothelial growth factor receptor 2 (Homo sapiens, UniProt P35968); experiment: Inhibition of human N-terminal GST tagged VEGFR-2 expressed in baculovirus infected Sf9 cells using poly (Glu,Tyr) 4:1 as substrate in presence of ATP by Kinase-Glo luminescence assay
CCRF-CEM = experiment: Growth inhibition of human CCRF-CEM cells at 10 uM incubated for 48 hrs by sulforhodamine B assay relative to control; assay type: functional; settings: read-out: GI
K562 = experiment: Growth inhibition of human K562 cells at 10 uM incubated for 48 hrs by sulforhodamine B assay relative to control; assay type: functional; settings: K562, 48 h, read-out: GI
MOLT-4 = experiment: Growth inhibition of human MOLT4 cells at 10 uM incubated for 48 hrs by sulforhodamine B assay relative to control; assay type: functional; settings: MOLT-4, 48 h, read-out: GI
RPMI-8226 = experiment: Growth inhibition of human RPMI8226 cells at 10 uM incubated for 48 hrs by sulforhodamine B assay relative to control; assay type: functional; settings: RPMI-8226, 48 h, read-out: GI
A549 = experiment: Growth inhibition of human A549/ATCC cells at 10 uM incubated for 48 hrs by sulforhodamine B assay relative to control; assay type: functional; settings: A549, 48 h, read-out: GI
EKVX = experiment: Growth inhibition of human EKVX cells at 10 uM incubated for 48 hrs by sulforhodamine B assay relative to control; assay type: functional; settings: read-out: GI
HOP-62 = experiment: Growth inhibition of human HOP62 cells at 10 uM incubated for 48 hrs by sulforhodamine B assay relative to control; assay type: functional; settings: HOP-62, 48 h, read-out: GI
HOP-92 = experiment: Growth inhibition of human HOP92 cells at 10 uM incubated for 48 hrs by sulforhodamine B assay relative to control; assay type: functional; settings: HOP-92, 48 h, read-out: GI
NCI-H226 = experiment: Growth inhibition of human NCI-H226 cells at 10 uM incubated for 48 hrs by sulforhodamine B assay relative to control; assay type: functional; settings: NCI-H226, 48 h, read-out: GI
NCI-H23 = experiment: Growth inhibition of human NCI-H23 cells at 10 uM incubated for 48 hrs by sulforhodamine B assay relative to control; assay type: functional; settings: NCI-H23, 48 h, read-out: GI
NCI-H522 = experiment: Growth inhibition of human NCI-H522 cells at 10 uM incubated for 48 hrs by sulforhodamine B assay relative to control; assay type: functional; settings: NCI-H522, 48 h, read-out: GI
HCT-116 = experiment: Growth inhibition of human HCT116 cells at 10 uM incubated for 48 hrs by sulforhodamine B assay relative to control; assay type: functional; settings: HCT-116, 48 h, read-out: GI
HCT-15 = experiment: Growth inhibition of human HCT15 cells at 10 uM incubated for 48 hrs by sulforhodamine B assay relative to control; assay type: functional; settings: HCT-15, 48 h, read-out: GI
SF-539 = experiment: Growth inhibition of human SF539 cells at 10 uM incubated for 48 hrs by sulforhodamine B assay relative to control; assay type: functional; settings: SF-539, 48 h, read-out: GI
Malme-3M = experiment: Growth inhibition of human MALME-3M cells at 10 uM incubated for 48 hrs by sulforhodamine B assay relative to control; assay type: functional; settings: read-out: GI
UACC-62 = experiment: Growth inhibition of human UACC62 cells at 10 uM incubated for 48 hrs by sulforhodamine B assay relative to control; assay type: functional; settings: UACC-62, 48 h, read-out: GI
IGROV-1 = experiment: Growth inhibition of human IGROV1 cells at 10 uM incubated for 48 hrs by sulforhodamine B assay relative to control; assay type: functional; settings: IGROV-1, 48 h, read-out: GI
OVCAR-4 = experiment: Growth inhibition of human OVCAR4 cells at 10 uM incubated for 48 hrs by sulforhodamine B assay relative to control; assay type: functional; settings: OVCAR-4, 48 h, read-out: GI
OVCAR-5 = experiment: Growth inhibition of human OVCAR5 cells at 10 uM incubated for 48 hrs by sulforhodamine B assay relative to control; assay type: functional; settings: OVCAR-5, 48 h, read-out: GI
NCI/ADR-RES = experiment: Growth inhibition of human NCI/ADR-RES cells at 10 uM incubated for 48 hrs by sulforhodamine B assay relative to control; assay type: functional; settings: read-out: GI
SK-OV-3 = experiment: Growth inhibition of human SKOV3 cells at 10 uM incubated for 48 hrs by sulforhodamine B assay relative to control; assay type: functional; settings: SK-OV-3, 48 h, read-out: GI
A498 = experiment: Growth inhibition of human A498 cells at 10 uM incubated for 48 hrs by sulforhodamine B assay relative to control; assay type: functional; settings: A498, 48 h, read-out: GI
ACHN = experiment: Growth inhibition of human ACHN cells at 10 uM incubated for 48 hrs by sulforhodamine B assay relative to control; assay type: functional; settings: read-out: GI
CAKI-1 = experiment: Growth inhibition of human Caki1 cells at 10 uM incubated for 48 hrs by sulforhodamine B assay relative to control; assay type: functional; settings: CAKI-1, 48 h, read-out: GI
SN12C = experiment: Growth inhibition of human SN12C cells at 10 uM incubated for 48 hrs by sulforhodamine B assay relative to control; assay type: functional; settings: read-out: GI
UO-31 = experiment: Growth inhibition of human UO31 cells at 10 uM incubated for 48 hrs by sulforhodamine B assay relative to control; assay type: functional; settings: UO-31, 48 h, read-out: GI
PC-3 = experiment: Growth inhibition of human PC3 cells at 10 uM incubated for 48 hrs by sulforhodamine B assay relative to control; assay type: functional; settings: PC-3, 48 h, read-out: GI
MCF7 [2] = experiment: Growth inhibition of human MCF7 cells at 10 uM incubated for 48 hrs by sulforhodamine B assay relative to control; assay type: functional; settings: MCF7, 48 h, read-out: GI
MDA-MB-231 = experiment: Growth inhibition of human MDA-MB-231 cells at 10 uM incubated for 48 hrs by sulforhodamine B assay relative to control; assay type: functional; settings: MDA-MB-231, 48 h, read-out: GI
Hs-578T = experiment: Growth inhibition of human Hs578T cells at 10 uM incubated for 48 hrs by sulforhodamine B assay relative to control; assay type: functional; settings: read-out: GI
T47D [3] = experiment: Growth inhibition of human T47D cells at 10 uM incubated for 48 hrs by sulforhodamine B assay relative to control; assay type: functional; settings: read-out: GI
MDA-MB-468 = experiment: Growth inhibition of human MDA-MB-468 cells at 10 uM incubated for 48 hrs by sulforhodamine B assay relative to control; assay type: functional; settings: MDA-MB-468, 48 h, read-out: GI
MCF7 [4] = experiment: Cytotoxicity against human MCF7 cells expressing VEGFR2 and wild type BRAF measured after 48 hrs by sulforhodamine B assay; assay type: functional, cell-based; settings: MCF7, 48 h
T47D [5] = experiment: Cytotoxicity against human T47D cells expressing wild type BRAF measured after 48 hrs by sulforhodamine B assay; assay type: functional, cell-based
MCF7 [6] = experiment: Inhibition of VEGFR2 level in human MCF7 cells at 10 uM measured after 48 hrs by ELISA relative to control; assay type: functional; settings: MCF7, 48 h

Vascular endothelial growth factor receptor 2, sequence (P35968 whole entry): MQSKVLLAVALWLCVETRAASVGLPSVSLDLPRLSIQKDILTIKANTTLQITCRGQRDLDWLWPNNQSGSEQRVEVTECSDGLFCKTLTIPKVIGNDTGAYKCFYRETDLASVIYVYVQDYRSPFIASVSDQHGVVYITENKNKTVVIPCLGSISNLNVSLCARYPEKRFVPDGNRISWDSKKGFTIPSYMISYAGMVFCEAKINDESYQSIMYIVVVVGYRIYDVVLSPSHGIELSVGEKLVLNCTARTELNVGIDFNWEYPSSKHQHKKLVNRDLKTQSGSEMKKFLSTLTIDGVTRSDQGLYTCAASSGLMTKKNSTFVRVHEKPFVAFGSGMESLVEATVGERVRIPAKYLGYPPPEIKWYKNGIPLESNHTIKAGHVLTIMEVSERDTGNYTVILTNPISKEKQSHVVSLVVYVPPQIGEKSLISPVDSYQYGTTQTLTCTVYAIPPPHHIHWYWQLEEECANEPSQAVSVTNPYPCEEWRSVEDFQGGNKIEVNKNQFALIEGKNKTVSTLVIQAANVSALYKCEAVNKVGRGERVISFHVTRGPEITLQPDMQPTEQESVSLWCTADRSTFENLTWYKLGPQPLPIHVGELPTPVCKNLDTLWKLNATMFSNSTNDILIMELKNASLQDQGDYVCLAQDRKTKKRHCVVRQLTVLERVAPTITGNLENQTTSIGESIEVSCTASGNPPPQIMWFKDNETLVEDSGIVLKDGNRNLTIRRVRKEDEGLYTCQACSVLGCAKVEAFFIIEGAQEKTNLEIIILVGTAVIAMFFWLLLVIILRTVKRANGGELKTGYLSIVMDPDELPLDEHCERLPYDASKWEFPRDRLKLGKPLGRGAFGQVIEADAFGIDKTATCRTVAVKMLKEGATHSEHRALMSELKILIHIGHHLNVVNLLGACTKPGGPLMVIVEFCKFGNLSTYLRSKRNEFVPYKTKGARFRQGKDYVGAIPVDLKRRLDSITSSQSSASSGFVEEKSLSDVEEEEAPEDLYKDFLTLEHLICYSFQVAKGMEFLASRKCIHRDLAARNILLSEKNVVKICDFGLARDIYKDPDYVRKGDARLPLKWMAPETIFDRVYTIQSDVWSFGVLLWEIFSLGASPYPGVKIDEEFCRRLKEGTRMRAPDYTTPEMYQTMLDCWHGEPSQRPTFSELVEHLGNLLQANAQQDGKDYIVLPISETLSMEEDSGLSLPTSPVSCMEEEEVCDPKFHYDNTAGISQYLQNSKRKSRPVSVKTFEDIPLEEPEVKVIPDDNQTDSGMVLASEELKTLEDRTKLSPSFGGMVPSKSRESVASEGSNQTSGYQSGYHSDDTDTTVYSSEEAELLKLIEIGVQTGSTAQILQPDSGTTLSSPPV

IC50 [1]: 0.74 µM
Compound: CC(=O)c1cccc(Nc2ccnc(SCC(=O)c3ccc(-c4ccccc4)cc3)n2)c1
inhibition of growth at 10 µM (CCRF-CEM): 28%
inhibition of growth at 10 µM (K562): 16%
inhibition of growth at 10 µM (MOLT-4): 29%
inhibition of growth at 10 µM (RPMI-8226): 34%
inhibition of growth at 10 µM (A549): 14%
inhibition of growth at 10 µM (EKVX): 15%
inhibition of growth at 10 µM (HOP-62): 19%
inhibition of growth at 10 µM (HOP-92): 17%
inhibition of growth at 10 µM (NCI-H226): 22%
inhibition of growth at 10 µM (NCI-H23): 18%
inhibition of growth at 10 µM (NCI-H522): 38%
inhibition of growth at 10 µM (HCT-116): 14%
inhibition of growth at 10 µM (HCT-15): 15%
inhibition of growth at 10 µM (SF-539): 11%
inhibition of growth at 10 µM (Malme-3M): 17%
inhibition of growth at 10 µM (UACC-62): 24%
inhibition of growth at 10 µM (IGROV-1): 20%
inhibition of growth at 10 µM (OVCAR-4): 12%
inhibition of growth at 10 µM (OVCAR-5): 12%
inhibition of growth at 10 µM (NCI/ADR-RES): 14%
inhibition of growth at 10 µM (SK-OV-3): 22%
inhibition of growth at 10 µM (A498): 40%
inhibition of growth at 10 µM (ACHN): 12%
inhibition of growth at 10 µM (CAKI-1): 23%
inhibition of growth at 10 µM (SN12C): 13%
inhibition of growth at 10 µM (UO-31): 40%
inhibition of growth at 10 µM (PC-3): 25%
inhibition of growth at 10 µM (MCF7 [2]): 12%
inhibition of growth at 10 µM (MDA-MB-231): 41%
inhibition of growth at 10 µM (Hs-578T): 14%
inhibition of growth at 10 µM (T47D [3]): 49%
inhibition of growth at 10 µM (MDA-MB-468): 14%
IC50 (MCF7 [4]): 24.4 µM
IC50 (T47D [5]): 12.1 µM
inhibition at 10 µM (MCF7 [6]): 36%
